Earlier results, collected in patent publication USRE41489E1 (priority 1997, dated 2010).
Read-outs that look alike come from different tables or passages of the source.

Legend:
[1] = parenteral, on a weight basis
[2] = target: δ receptors (Homo sapiens, UniProt P41143)
[3] = estimated
[4] = not given; remark: listed apart in the source
[5] = rats
[6] = conscious postoperative patients
[7] = test system: plasma proteins
[8] = intravenous single dose of about 0.3 mg

Chain of δ receptors (P41143 whole entry): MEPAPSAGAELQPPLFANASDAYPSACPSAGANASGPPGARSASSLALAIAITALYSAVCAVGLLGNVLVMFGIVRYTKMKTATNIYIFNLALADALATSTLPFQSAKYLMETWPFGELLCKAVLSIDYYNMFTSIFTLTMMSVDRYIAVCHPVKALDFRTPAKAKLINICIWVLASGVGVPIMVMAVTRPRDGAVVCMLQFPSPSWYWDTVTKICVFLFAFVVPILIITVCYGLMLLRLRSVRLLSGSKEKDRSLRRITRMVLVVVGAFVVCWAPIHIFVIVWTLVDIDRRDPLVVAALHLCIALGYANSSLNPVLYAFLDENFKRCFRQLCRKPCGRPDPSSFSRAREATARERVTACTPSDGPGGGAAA

## CO[C@]12CC[C@@]3(C[C@@H]1[C@](C)(O)C(C)(C)C)[C@H]1Cc4ccc(O)c5c4[C@@]3(CCN1CC1CC1)[C@H]2O5 [buprenorphine, 21-cyclopropyl-7-[(S)-1-hydroxy-1,2,2-trimethylpropyl]-6,14-endo-ethano-6,7,8,14-tetrahydrooripavine]
[1]
  analgesic potency relative to meperidine: about 600 times
  analgesic potency relative to pentazocine: about 200 times
[2]
  binding affinity to δ receptors: lower affinity
[3]
  oral bioavailability: 15%
Intramuscular second 0.3-mg dose 3 hours after the initial intravenous dose
  mean peak plasma buprenorphine concentration: about 3.6 ng/ml
Intramuscular second 0.3-mg dose, after about 3 hours
  plasma concentration: about 0.4 ng/ml
Intravenous about 0.3 mg, after about 5 minutes
  plasma concentration: about 9 ng/ml
Intravenous about 0.3 mg, after about 3 hours
  plasma concentration: about 0.4 ng/ml
[8]
  mean peak plasma drug concentration: about 18 ng/ml
  time of mean peak plasma concentration: ≤ 2 min
[4]; 0.4 mg sublingual single dose
  Cmax: 0.50 ± 0.06 ng/mL
  Tmax: 3.5 ± 0.667 h
  systemic availability: 57.7%
[4]; 0.8 mg sublingual single dose
  Cmax: 1.04 ± 0.27 ng/mL
  Tmax: 3.2 ± 0.817 h
  systemic availability: 54.1%
[5]; intramuscular administration
  time to highest concentrations in the liver: ≤ 40 min
[5]; oral administration
  time to highest concentrations in the liver: ≤ 10 min
[6]
  total plasma clearance: approximately 1.28 l/minute
[7]
  bound to plasma proteins: approximately 96%
